For one compound, solubility, logD and TM/TG ratio results are on record in patent US20160339074A1, “PHARMACEUTICAL COMPOSITION OF SELECTIVE HCV NS3/4A INHIBITORS” (MERCK SHARP & DOHME CORP., priority 2014, published 2016).

In brackets after ≈: the same amount, converted by molar mass. Read-outs that look alike come from different tables or passages of the source.

The nature of one data set: Aqueous solubility. The note with it: aqueous medium (not further specified). It counts as physicochemical.
A further data set in a line: log D of Compound 1. It counts as physicochemical. The note with it: pH 7, pH=7.
The conditions of data set [1]: thermodynamic from solid.
A short description of data set [2]: TM/TG ratio (crystallization tendency). It counts as physicochemical. As to conditions: based on the most stable crystalline phase known.

On to `C=C[C@@H]1C[C@]1(NC(=O)[C@@H]1C[C@@H]2CN1C(=O)[C@H](C(C)(C)C)NC(=O)O[C@@H]1C[C@H]1CCCCCc1nc3ccc(OC)cc3nc1O2)C(=O)NS(=O)(=O)C1CC1` [Compound 1, (1aR,5S,8S,10R,22aR)-5-tert-butyl-N-{(1R,2S)-1-[(cyclopropylsulfonyl)carbamoyl]-2-ethenylcyclopropyl}-14-methoxy-3,6-dioxo-1,1a,3,4,5,6,9,10,18,19,20,21,22,22a-tetradecahydro-8H-7,10-methanocyclopropa[18,19][1,10,3,6]dioxadiazacyclononadecino[11,12-b]quinoxaline-8-carboxamide], for which the solubility in the data set “Aqueous solubility” is < 50 µg/mL. Further, the log distribution coefficient (logD) in the data set “log D of Compound 1” stood at 3. The solubility at 2 h in data set [1] (simulated fasted state intestinal fluid, fassif) is 50 µg/mL (≈ 65.2 µM); in data set [1] (simulated gastric fluid), < 3 µg/mL. The TM/TG ratio in data set [2] came out at 1.12.
